Assay results reported in patent US4093617A, “3,5,7-Trisubstituted pyrazolo[1,5-a]pyrimidines” (ICN Pharmaceuticals, Inc., priority 1976, dated 1978).
Values joined by “and” are separate entries in the source; they are usually repeats but may differ in a detail not shown here. Identical values can stand only once. Like-named read-outs stand apart in the source and are kept apart here.

Assays:
[1] = tested on: 3',5'-Cyclic AMP Phosphodiesterase (PDE); assay: Inhibition of 3',5'-cyclic AMP phosphodiesterase (PDE) isolated from rabbit kidney, low affinity (Fraction I, high Km); assay type: biochemical; conditions: for IC50: cAMP approx. 5 × 10^-4 M
[2] = tested on: histamine-induced bronchospasm; conditions: F. L. Rose et al, J. Chem. Soc.; cited from earlier work
male Sprague-Dawley rats = assay: Antianxiety activity: stimulation of drinking activity of the rat in a passive avoidance behavioral paradigm; assay type: in vivo; conditions: for minimal effective dose: read-out: Dose wherein the first statistically behavioral difference (p<0.05 or less) from the control group occurs; for ED50: read-out: ED50 (dose producing 50% of maximum effect)
Protocol: In Tables V and VI the antianxiety activity of the listed compounds is measured as a function of the compounds ability to stimulate drinking activity of the rat in a passive avoidance behavioral paradigm. For these tests male Sprague-Dawley rats weighing 175 to 200 grams were water deprived for 48 hr. and placed in environmental chambers in which water was available with a punishment contingency. Each accumulated 3 sec. of contact with the drinking tube caused a constant current source (1.2 mA DC) to be applied to the drinking tube for 2 sec. Test sessions were 5 min. in duration, commencing with delivery of the first shock. Twelve rats were treated orally 1 hr. or intraperitoneally 30 min. prior to testing. The tests are scored based on the number of shocks accepted by the treated animals at a specific dose and were compared to twelve saline control animals tested on the same day.
In Table V the activity is expressed as an ED50. The ED50 is the dose of the compound in mg/kg producing 50% of maximum effect and is shown for both oral (p.o.) and interperitoneal (i.p.) routes of administration.
In Table VI the activity is expressed as the dose (i.p.) wherein the first statistically behavioral difference (p<0.05 or less) from the control group occurs. Included for comparison are the commonly prescribed antianxiety drugs, chlordiazepoxide and diazepam.

male Swiss-Webster mice = assay: Potentiation of the depressant effects of sodium barbital, loss of the righting reflex in the mouse; assay type: in vivo
Protocol: This dose of barbital sodium (100 mg/kg) was then injected i.p. in a group of ten mice. Fifteen min. later the mice were injected i.p. with the dose of compound to be tested. […] Mice were tested at 15 min. intervals for one hour after injection of test compound. Responses were recorded on an all-or-none basis; loss of righting reflex for 5 min. or longer was the effective criteria.

[3] = Potentiation of the depressant effects of ethanol, loss of the righting reflex in the mouse; conditions: po
Protocol: For this test male Swiss-Webster mice weighing 18 to 20 grams were food deprived 18 hours prior to the experiment. […] Drugs were given orally in 20 ml/kg of 1% CMC. Ethanol (5 gm/kg p.o.) was given 30 minutes after drug injection. Immediately after treatment animals were placed in individual clear plastic containers.
The righting reflex was recorded as being present when the animal would voluntarily roll to its side when placed on its back. Animals were tested for righting reflex every 15 minutes.

[4] = tested on: 3',5'-Cyclic AMP Phosphodiesterase (PDE); assay: Inhibition of 3',5'-cyclic AMP phosphodiesterase (PDE) isolated from rabbit lung, low affinity (Fraction I, high Km); assay type: biochemical; conditions: for IC50: cAMP approx. 5 × 10^-4 M
[5] = tested on: 3',5'-Cyclic-AMP phosphodiesterase (PDE); assay: Inhibition of PDE from rabbit lung, high affinity (Fraction II, low Km); assay type: biochemical; conditions: cAMP 1.6 × 10^-7 M, relative to theophylline
[6] = tested on: 3',5'-Cyclic-AMP phosphodiesterase (PDE); assay: Inhibition of PDE from beef heart, high affinity (Fraction II, low Km); assay type: biochemical; conditions: cAMP 1.6 × 10^-7 M, relative to theophylline
phosphodiesterase = conditions: cited from earlier work
central nevous system = conditions: in vivo; cited from earlier work
[7] = i.p., 15 min after sodium barbital 100 mg/kg i.p.
[8] = ip, 0.5 h, i.p., 30 min prior to testing

Structure (SMILES) | α (relative inhibitory activity as compared with theophylline) [1] | IC50 ([1]; read-out: I50) [µM] | α Lung [5] | α Heart [6] | ED50 (male Sprague-Dawley rats; [8]) [mg/kg] | minimal effective dose (male Sprague-Dawley rats; ip, 0.5 h, i.p.) [mg/kg] | ED50 (male Sprague-Dawley rats; po, 1 hr prior to testing) [mg/kg] | Dose of compound which produced loss of righting reflex in 50% of treated animals (male Swiss-Webster mice; mouse, in vivo, ip) [mg/kg] | NOAEL ([3]; mouse) [mg/kg] | other results
CCCc1nc(C)cc2nc(N)nn12 [COMPOUND 1] | 0.14 | 1600 |  |  |  |  |  |  |  | Protection from histamine-induced bronchospasm [2]: capable of protecting animals from histamine-induced bronchospasm
CCOC(=O)c1cnn2c(C)cc(C)nc12 [COOC2 H5] | 0.22 | 1000 |  |  |  |  |  |  |  | 
CNC1=Nc2ccc(Cl)cc2C(c2ccccc2)=[N+]([O-])C1 [Chlordiazepoxide, chlordiazepoxide, reference compound] |  |  |  |  |  |  |  |  |  | minimal effective dose (male Sprague-Dawley rats; ip, 0.5 h): 10 mg/kg; Dose of compound which produced loss of righting reflex in 50% of treated animals (male Swiss-Webster mice; [7]): 6.4 ± 0.4 mg/kg; NOAEL ([3]; in vivo): 4 mg/kg
CN1C(=O)CN=C(c2ccccc2)c2cc(Cl)ccc21 [Diazepam, diazepam, reference compound] |  |  |  |  |  |  |  |  |  | minimal effective dose (male Sprague-Dawley rats; ip, 0.5 h): 20 mg/kg; Dose of compound which produced loss of righting reflex in 50% of treated animals (male Swiss-Webster mice; [7]): 0.5 ± 0.8 mg/kg
Cc1cc(C)n2ncc(Br)c2n1 [Example I, 3-Bromo-5,7-dimethyl pyrazolo[1,5-a]pyrimidine] | 2.20 | 100 | 0.7 | 1.7 | 10.5 ± 0.8 | 10 | 9.5 ± 3.5 | 61.9 ± 12.1 | 400 | α (relative inhibitory activity as compared with theophylline) [4]: 2.4; IC50 ([4]; read-out: I50): 270 µM
Cc1cc(C)n2nccc2n1 [H, 5,7-dimethyl pyrazolo[1,5-a]pyrimidine, reference compound] | 0.20 | 800 |  |  | 20.9 ± 4.6 | 40 | 43.6 ± 6.1 | 118.8 ± 15.7 | 300 | α (relative inhibitory activity as compared with theophylline) [4]: 0.32; IC50 ([4]; read-out: I50): 2000 µM
Cc1cc(C)n2ncc(Cl)c2n1 [II, 3-Chloro-5,7-dimethyl pyrazolo[1,5-a]pyrimidine] | 1.33 | 240 | 2.2 | 1.7 | 2.4 ± 4.3 | 10 | 7.8 ± 4.5 | 60.9 ± 20.8 | 200 | α (relative inhibitory activity as compared with theophylline) [4]: 3.1; IC50 ([4]; read-out: I50): 210 µM
Cc1cc(C)n2ncc(I)c2n1 [III, 5,7-Dimethyl 3-iodo pyrazolo[1,5-a]pyrimidine] | 1.23 | 130 | 3.5 | 1.5 | 10.1 ± 6.8 | 20 | 95.9 ± 11.7 | 142.8 ± 10.1 | 200 | α (relative inhibitory activity as compared with theophylline) [4]: 3.5; IC50 ([4]; read-out: I50): 210 µM
Cc1cc(C)n2ncc(F)c2n1 [IV, 5,7-Dimethyl 3-fluoro pyrazolo[1,5-a]pyrimidine] |  |  |  |  | 40.7 ± 11.9 | 40 | 76.2 ± 10.8 | 148.5 ± 4.5 | 100 | 
CCc1cc(C)nc2c(Br)cnn12 [XIV, 3-Bromo-7-ethyl-5-methylpyrazolo[1,5-a]pyrimidine] |  |  | 7.5 | 4.0 |  |  |  |  |  | 
CCCc1cc(C)nc2c(Br)cnn12 [XV, 3-Bromo-5-methyl-7-n-propylpyrazolo[1,5-a]pyrimidine] |  |  | 7.5 | 6.5 |  |  |  |  |  | 
CCc1cc(CC)n2ncc(Br)c2n1 [XVI, 3-Bromo-5,7-diethylpyrazolo[1,5-a]pyrimidine] |  |  | 7.4 | 6.0 |  |  |  |  |  | 
CCCc1cc(CCC)n2ncc(Br)c2n1 [XVII, 3-Bromo-5,7-di-n-propylpyrazolo[1,5-a]pyrimidine] |  |  | 5.5 | 3.0 |  |  |  |  |  | 
CCCc1nc(C)cn2c(N)nnc12 [compound 2] |  |  |  |  |  |  |  |  |  | Protection from histamine-induced bronchospasm [2]: capable of protecting animals from histamine-induced bronchospasm
Cn1c(=O)c2[nH]cnc2n(C)c1=O [theophylline] |  |  |  |  |  |  |  |  |  | IC50 ([1]; theophylline reference run of each compound line, read-out: I50 (theophylline)): 160 µM and 220 µM and 320 µM; IC50 ([4]; theophylline reference run of each compound line, read-out: I50 (Theophylline)): 640 µM and 740 µM; Selectivity of phosphodiesterase inhibition (phosphodiesterase): does not selectively inhibit phosphodiesterase; Cardiovascular effects (central nevous system): rapid beating; Central nervous system effect (central nevous system): gives general stimulation to the central nevous system
